{"source": "patent US20120107323A1", "about": "“KINASE PROTEIN BINDING INHIBITORS” (University of Florida, priority 2009, published 2012)", "key": {"[1]": {"system": "KYSE70 esophageal cancer cells", "assay": "Cell viability (MTT), KYSE70", "assay_type": "cell-based", "settings": "KYSE 70, 72 hours", "experimental": "(§1) Cell viability (MTT) and CFSE Proliferation assay: Cells were plated in 96-well plates and let adhere overnight. After cell treatment, cell viability was measured by 3-(4,5-dimethylthiazol-2-yl)-2,5-diphenyl tetrazolium bromide (MTT) assay (CellTiter 96® Aqueous, Promega, Madison, Wis.).\n(§2) Cell viability and detachment assays: After cells were treated with siRNA transfection, cell viability was measured by 3-(4,5-dimethylthiazol2-yl)-2,5-diphenyl tetrazolium bromide (MTT) assay (CellTiter 96® AQueous, Promega, Madison, Wis.). Briefly, 20 μl of the tetrazolium compound was added to each well. The cells were then incubated at 37° C. for 1 h. The plate was read at 490 nm with a plate reader to determine the viability. In detachment assays, detached and attached cells were harvested separately and counted in a hemocytometer. The percentage of detachment was calculated by dividing the number of detached cells by the total number of cells. Apoptosis assays: After treatment, attached and detached cells were collected, counted and prepared for terminal uridine deoxynucleotidyl transferase (TUNEL) assay by utilizing an APO-BRDU kit (BD Pharmingen, San Diego, Calif.) according to the manufacturer's instructions. Stained cells were analyzed with a fluorescence-activated cell sorting-Calibur flow cytometer (BD Biosciences). Calculation of the percentage of apoptotic cells in the sample was completed with CellQuest software (BD Biosciences). Apoptotic cells were also analyzed by Hoechst staining. Hoechst 33342 ([…]) was added to the fixed cells and the specimens were mounted on glass coverslips. The slides were viewed under the Zeiss microscope for apoptotic nuclei. The percent of apoptotic cells was calculated as the ratio of apoptotic cells to total number of cells.\n(§3) In addition, the effect of INT2-31 on cell viability of esophageal, pancreatic and breast cancer cell lines was analyzed and the IC50 value for each cell line was determined, as shown in Table 1. […] Similar to melanoma results, INT2-31 inhibits viability more in cancer cells compared to normal cells. Sensitivity of the cells to INT2-31 varied and directly correlated to the FAK and IGF-1R expression level of the cells."}, "[2]": {"system": "KYSE140 esophageal cancer cells", "assay": "Cell viability (MTT), KYSE140", "assay_type": "cell-based", "settings": "KYSE 140, 72 hours", "experimental": "as §1, §2, §3"}, "A375 melanoma cells": {"system": "A375 melanoma cells", "assay": "Cell viability (MTT), A375", "assay_type": "cell-based, human", "settings": "A375, MTT", "experimental": "as §1, §2\nIn addition, the effect of INT2-31 on cell viability of esophageal, pancreatic and breast cancer cell lines was analyzed and the IC50 value for each cell line was determined, as shown in Table 1. […] Similar to melanoma results, INT2-31 inhibits viability more in cancer cells compared to normal cells. […]"}, "C8161 melanoma cells [3]": {"system": "C8161 melanoma cells", "assay": "Cell viability (MTT), C8161", "assay_type": "cell-based, human", "settings": "C8161, MTT", "experimental": "as §1, §2, §3\nTo determine the effect on melanoma cell viability, three human melanoma cell lines were exposed to increasing doses of INT2-31 for 72 h and the results compared to human melanocytes. […] The effects of INT2-31 varied in the three cell lines and was possibly related to constitutive FAK and IGF-1R activation with the least sensitive cell line (SK-MEL-28) having the greatest expression of FAK and IGF-1R."}, "FAK-NT2 and IGF-1R": {"molecular_target": "T1, FAK-NT2 and IGF-1R (Homo sapiens, UniProt Q05397)", "T1 construct": "FAK-NT2 (a.a. 127-243); expressed in transfected cells", "T1 sequence (Q05397 127-243)": "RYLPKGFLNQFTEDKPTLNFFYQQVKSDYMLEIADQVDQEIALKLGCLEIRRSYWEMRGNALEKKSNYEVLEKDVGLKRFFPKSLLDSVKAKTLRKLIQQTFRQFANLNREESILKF", "assay": "Immunofluorescent staining and confocal microscopy, colocalization", "assay_type": "cell-based", "settings": "cells transfected in the presence of the compound", "experimental": "Cells were fixed in 3.7% paraformaldehyde in 1×PBS for 10 min and permeabilized with 0.5% Triton X-100 for 5 minutes. Cells were then washed with 1×PBS, blocked with 25% normal goat serum in 1×PBS for 20 min and incubated with primary antibody (1:200 dilution in 25% goat serum) for 30 min at room temperature. After washing three times with 1×PBS, cells were incubated with a Texas Red-conjugated secondary antibody (1:400 dilution in 25% goat serum) for 30 min at room temperature and washed another three times with 1×PBS before observed under the microscope. For coimmunostaining experiments, cells were incubated with another primary antibody diluted 1:100 in 25% goat serum for 1 h. After washing three times with 1×PBS, a fluorescein isothiocyanate-conjugated secondary antibody (1:100 dilution) was applied to the coverslip. Cells immunostained with FAK and IGF-IR antibodies were evaluated for colocalization with a Leica confocal microscope and the MRC-1024 confocal laser scanning system. Cells treated with FAK-CD or FAK siRNA with or without test compound were stained with FAK antibody and evaluated for displacement of FAK from the focal adhesions with a Zeiss microscope. […] Colocalization is low for FAK-NT1, FAK-NT3 and FAK-CD."}, "[4]": {"system": "FAK +/+ and FAK −/− mouse embryonic fibroblast", "assay": "MTT assay on FAK wildtype and null fibroblasts", "assay_type": "cell-based", "settings": "MTT, p<0.05", "experimental": "as §1\n(§4) Cell proliferation assay: Cell proliferation assay (Promega) using CellTiter 96 aqueous one solution was performed by adding a small amount of the One Solution Reagent directly to culture wells, incubating for 1-4 hours and then recording absorbance at 490 nm with a spectrophotometric plate reader. The quantity of formazan product as measured by the amount of 490 nm absorbance was directly proportional to the number of living cells in culture.\nas §2"}, "IGF-1R+/+ and −/− MEFs": {"system": "IGF-1R+/+ and −/− MEFs", "assay": "MTT assay on IGF-1R wildtype and null fibroblasts", "assay_type": "cell-based, mouse", "settings": "MTT, p<0.05", "experimental": "as §1, §4, §2"}, "C8161 melanoma cells [5]": {"system": "C8161 melanoma cells", "assay": "Detachment assay, C8161 cells", "assay_type": "cell-based, human", "settings": "INT2-31 5 μM at 72 h; TAE 226 at 48 h and 72 h", "experimental": "In detachment assays, detached and attached cells were harvested separately and counted in a hemocytometer. The percentage of detachment was calculated by dividing the number of detached cells by the total number of cells.\nDetachment assay: Cells were plated with and without compound for 24, 48, and 72 h, and detached and attached cells were counted in a hemocytometer. The percent of detachment was calculated by dividing the number of detached cells by the total number of cells and experiments performed in triplicate. Apoptosis assays: After treatment, attached and detached cells were collected, counted and prepared for terminal uridine deoxynucleotidyl transferase (TUNEL) assay by utilizing an APO-BRDU kit (BD Pharmingen, San Diego, Calif.) and cells analyzed with a FACSCalibur cytometer (Becton Dickinson, San Jose, Calif.). In addition, apoptotic cells were analyzed with Hoechst 33342 staining (1 μg/ml). The percent of apoptotic cells was calculated as the ratio of apoptotic cells to total number of cells."}}, "data": [{"smiles": "O=c1[nH]cc(F)c(=O)[nH]1", "note": "[5-FU, 5-Fluorouracil, reference compound]", "values": [{"measurement": "sensitivity of cells to single-agent treatment", "setting": "[1]", "value": "sensitive"}, {"measurement": "sensitivity of cells to single-agent treatment", "setting": "[2]", "value": "sensitive"}]}, {"smiles": "CC(=O)C1=C(O)C2(C)c3c(O)c(C)c(O)c(C(C)=O)c3OC2(Sc2ccccc2)CC1=O", "note": "(centres unmarked) [NSC 250435, 1,1′-(1,7,9-Trihydroxy-8,9b-dimethyl-3-oxo-4-a-(phenylthio)-3,4,4a,9b-tetrahydrodibenzo-[b,d]furan-2,6-diyl)diethanone]", "values": [{"measurement": "cell viability (in words)", "setting": "A375 melanoma cells", "value": "inhibited cell viability"}, {"measurement": "cell viability (in words)", "setting": "C8161 melanoma cells [3]", "value": "inhibited cell viability"}, {"measurement": "percentage of interaction between FAK-NT2 and IGF-1R", "setting": "FAK-NT2 and IGF-1R", "value": "around 30%"}]}, {"smiles": "Nc1ncnc2c1c(-c1cccc(OCc3ccccc3)c1)cn2C1CC(CN2CCC2)C1", "note": "(centres unmarked) [NVP AEW541, reference compound]", "values": [{"measurement": "effect on FAK wildtype compared to null fibroblasts", "setting": "[4]", "value": "increased effect"}, {"measurement": "effect on IGF-1R wildtype compared to null fibroblasts", "setting": "IGF-1R+/+ and −/− MEFs", "value": "increased effect"}]}, {"smiles": "CNC(=O)c1ccccc1Nc1nc(Nc2ccc(N3CCOCC3)cc2OC)ncc1Cl", "note": "[TAE 226, reference compound]", "values": [{"measurement": "effect on detachment (in words)", "setting": "C8161 melanoma cells [5]", "value": "Greater effects"}]}]}
